Results published in patent US8791132B2, “Compounds and methods for treatment of hypertension” (Medivation Technologies, Inc., priority 2011, dated 2014).
Where two headings read alike, the source gives them in different places.

Columns and labels:
[1] = molecular target: T1, human recombinant adrenergic α2B receptor (Homo sapiens, UniProt P18089); experiment: Radioligand binding, adrenergic α2B ([3H]Rauwolscine); details: for Percentage inhibition of ligand binding, Adrenergic α2B / Percentage inhibition of ligand binding, Adrenergic α2B (0.03 μM): compound at 0.03 μM, 0.03 µM; for Percentage inhibition of ligand binding, Adrenergic α2B: repeat assays, each datapoint shown
T1 construct: expressed in transfected cells; host or cells: CHO-K1
T1 sequence (P18089 1-450): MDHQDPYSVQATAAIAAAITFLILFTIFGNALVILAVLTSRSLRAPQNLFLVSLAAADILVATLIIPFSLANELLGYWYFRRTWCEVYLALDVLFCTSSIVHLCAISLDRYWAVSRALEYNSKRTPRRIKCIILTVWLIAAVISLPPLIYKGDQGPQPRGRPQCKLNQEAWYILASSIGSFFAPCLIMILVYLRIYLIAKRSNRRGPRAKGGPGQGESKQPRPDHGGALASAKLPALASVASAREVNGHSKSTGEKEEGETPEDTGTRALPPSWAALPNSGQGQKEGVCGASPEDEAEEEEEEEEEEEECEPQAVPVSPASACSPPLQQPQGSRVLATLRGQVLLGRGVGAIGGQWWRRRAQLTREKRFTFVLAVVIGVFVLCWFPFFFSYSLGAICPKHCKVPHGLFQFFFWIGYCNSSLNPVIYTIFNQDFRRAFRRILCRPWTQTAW
Method in brief: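 Receptor expressed in CHO-K1 cells, assayed in 50 mM Tris-HCl pH 7.4 with 12.5 mM MgCl2, 1 mM EDTA and 0.2% BSA. Compounds were incubated with 2.5 nM [3H]Rauwolscine for 60 min at 25° C; 10 μM Prazosin defined non-specific binding. Filter counting gave percent inhibition of specific binding.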

[2] = molecular target: T2, human recombinant adrenergic α2A receptor (Homo sapiens, UniProt P08913); experiment: Radioligand binding, adrenergic α2A ([3H]MK-912)
T2 construct: expressed in transfected cells; host or cells: insect Sf9 cells
T2 sequence (P08913 1-465): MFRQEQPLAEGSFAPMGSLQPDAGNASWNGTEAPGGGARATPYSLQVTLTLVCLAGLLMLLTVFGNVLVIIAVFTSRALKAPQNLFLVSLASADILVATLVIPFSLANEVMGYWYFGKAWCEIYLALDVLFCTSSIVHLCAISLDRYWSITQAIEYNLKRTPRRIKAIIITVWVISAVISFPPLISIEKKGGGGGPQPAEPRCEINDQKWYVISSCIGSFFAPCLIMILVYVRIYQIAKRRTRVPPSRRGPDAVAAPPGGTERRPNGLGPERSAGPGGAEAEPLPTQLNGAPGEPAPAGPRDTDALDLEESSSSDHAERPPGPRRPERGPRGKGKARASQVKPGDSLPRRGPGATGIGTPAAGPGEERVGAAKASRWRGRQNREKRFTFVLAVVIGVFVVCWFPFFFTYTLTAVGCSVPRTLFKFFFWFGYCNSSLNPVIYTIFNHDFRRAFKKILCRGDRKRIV
Method in brief: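 Sf9 membranes, 1 nM [3H]MK-912, 60 min, 25 °C, Tris-HCl pH 7.4/MgCl2/EDTA buffer. NSB: 10 μM WB-4101. Filtration, counting; % inhibition of specific binding.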

[3] = molecular target: T3, rat adrenergic α1B receptor (Rattus norvegicus, UniProt P15823); experiment: Radioligand binding, adrenergic α1B ([3H]Prazosin)
T3 construct: rat adrenergic α1B receptor obtained from Wistar Rat liver; from tissue; host or cells: Wistar rat liver
T3 sequence (P15823 1-515): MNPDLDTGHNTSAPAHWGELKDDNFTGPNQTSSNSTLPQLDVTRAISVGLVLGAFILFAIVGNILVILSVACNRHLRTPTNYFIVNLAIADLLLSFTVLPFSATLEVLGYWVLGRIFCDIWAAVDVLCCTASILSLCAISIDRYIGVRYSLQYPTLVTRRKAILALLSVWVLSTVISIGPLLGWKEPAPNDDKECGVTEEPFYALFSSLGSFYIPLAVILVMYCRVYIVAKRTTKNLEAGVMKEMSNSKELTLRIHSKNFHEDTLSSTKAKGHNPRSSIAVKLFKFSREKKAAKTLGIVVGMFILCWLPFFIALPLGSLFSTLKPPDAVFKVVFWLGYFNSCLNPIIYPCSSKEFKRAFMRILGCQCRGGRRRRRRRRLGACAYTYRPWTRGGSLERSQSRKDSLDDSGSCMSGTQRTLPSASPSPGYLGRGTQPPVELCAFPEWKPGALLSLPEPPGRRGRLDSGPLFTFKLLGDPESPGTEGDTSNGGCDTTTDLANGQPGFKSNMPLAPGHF
Method in brief: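 Rat α1B receptor from Wistar rat liver was incubated with 0.25 nM [3H]prazosin for 60 min at 25 °C in 50 mM Tris-HCl, pH 7.4, 0.5 mM EDTA. Non-specific binding was defined with 10 μM phentolamine. Bound radioligand was measured by filtration and counting, reported as percent inhibition of specific binding.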

[4] = compound at 0.1 μM, [3H]MK-912, repeat assays, each datapoint shown, read-out: Percentage inhibition of ligand binding, Adrenergic α2A
[5] = compound at 0.1 μM, [3H]Prazosin, repeat assays, each datapoint shown, read-out: Percentage inhibition of ligand binding, Adrenergic α1B
[6] = [3H]Rauwolscine, repeat datapoints each shown
[7] = compound at 0.1 μM, [3H]MK-912, repeat datapoints each shown, 0.1 µM
[8] = compound at 0.1 μM, [3H]Prazosin, repeat datapoints each shown, 0.1 µM
[9] = read-out: Percentage inhibition of ligand binding, Adrenergic α2B (0.03 μM), compound at 0.03 μM, [3H]Rauwolscine, repeat datapoints each shown
[10] = read-out: Percentage inhibition of ligand binding, Adrenergic α2A (0.1 μM), compound at 0.1 μM, [3H]MK-912, repeat datapoints each shown
[11] = read-out: Percentage inhibition of ligand binding, Adrenergic α1B (0.1 μM), compound at 0.1 μM, [3H]Prazosin, repeat datapoints each shown

Percentage inhibition of ligand binding, Adrenergic α2B (0.03 μM) [1, 6]	Percentage inhibition of ligand binding, Adrenergic α2A (0.1 μM) [2, 7]	Percentage inhibition of ligand binding, Adrenergic α1B (0.1 μM) [3, 8]	inhibition at 0.03 µM [1, 9]	inhibition at 0.1 µM [2, 10]	inhibition at 0.1 µM [3, 11]	SMILES	also measured
38%	3%	7%				CC1Cc2c(c3cc(Cl)ccc3n2CC(C)(O)c2cccnc2)CN1C (single isomer, unassigned) [II-147c, 1-(8-chloro-2,3-dimethyl-3,4-dihydro-1H-pyrido[4,3-b]indol-5(2H)-yl)-2-(pyridin-3-yl)propan-2-ol]	
			73%	11%	2%	Cc1cc2c3c(n(CC(C)(O)c4cccnc4)c2cc1CO)CCN(C)C3 (centres unmarked) [II-154]	

Second part, the molecule before the results:

SMILES	Percentage inhibition of ligand binding, Adrenergic α2B (0.03 μM) [1, 6]	Percentage inhibition of ligand binding, Adrenergic α2A (0.1 μM) [2, 7]	Percentage inhibition of ligand binding, Adrenergic α1B (0.1 μM) [3, 8]	inhibition at 0.03 µM [1, 9]	inhibition at 0.1 µM [2, 10]	inhibition at 0.1 µM [3, 11]	also measured
Cc1ccc2c(c1)c1c(n2CC(C)(O)c2cccnc2)CCNC1 (single isomer, unassigned) [24a]							Percentage inhibition of ligand binding, Adrenergic α2B ([1]; [3H]Rauwolscine): 63%; inhibition at 0.1 µM [2, 4]: 8%; inhibition at 0.1 µM [3, 5]: 8%
Cc1ccc2c(c1)c1c(n2CC(N=[N+]=[N-])c2ccc(F)cc2F)CCN(C)CC1 (single isomer, unassigned) [V-21b, 6-(2-azido-2-(2,4-difluorophenyl)ethyl)-3,9-dimethyl-1,2,3,4,5,6-hexahydroazepino[4,5-b]indole]	93%	43%	34%				
Cc1ccc2c(c1)c1c(n2CC(CC(O)C(C)(C)C)c2ccncc2)CCN(C)C1 (single isomer, unassigned) [II-227a, 6-(2,8-dimethyl-1,2,3,4-tetrahydro-pyrido[4,3-b]indol-5-yl)-2,2-dimethyl-5-pyridin-4-yl-hexan-3-ol]	86%	15%	25%				
C=CCN1CCc2c(c3cc(C)ccc3n2CC(O)c2ccncc2)C1 (centres unmarked) [II-63, 2-(2-allyl-1,2,3,4-tetrahydro-8-methylpyrido[4,3-b]indol-5-yl)-1-(pyridin-4-yl)ethanol]							inhibition at 0.03 µM ([1]; 0.03 μM compound, read-out: Percentage inhibition of ligand binding, Adrenergic α2B): 90%; inhibition at 0.1 µM ([2]; 0.1 μM compound, read-out: Percentage inhibition of ligand binding, Adrenergic α2A): 39%; inhibition at 0.1 µM ([3]; 0.1 μM compound, read-out: Percentage inhibition of ligand binding, Adrenergic α1B): 55%
Cc1ccc2c(c1)c1c(n2CC(C)(O)c2ccccn2)CN(C)CC1 (single isomer, unassigned) [16a, 1-(2,6-dimethyl-1,2,3,4-tetrahydro-β-carbolin-9-yl)-2-pyridin-2-yl-propan-2-ol]							Percentage inhibition of ligand binding, Adrenergic α2B ([1]; [3H]Rauwolscine): 33%; Percentage inhibition of ligand binding, Adrenergic α2A ([2]; compound at 0.1 μM, [3H]MK-912, repeat assays, each datapoint shown, 0.1 µM): 9%; Percentage inhibition of ligand binding, Adrenergic α1B ([3]; compound at 0.1 μM, [3H]Prazosin, repeat assays, each datapoint shown, 0.1 µM): 47%
Cc1ccc2c(c1)c1c(n2CC(N)c2ccc(C(N)=O)nc2)CCN(C)C1 (centres unmarked) [compound 157, 5-[1-amino-2-(2,8-dimethyl-1,2,3,4-tetrahydro-pyrido[4,3-b]indol-5-yl)-ethyl]-pyridine-2-carboxylic acid amide]				43%	6%	57%	
Cc1ccc2c(c1)c1c(n2CC(O)c2ccc(F)cc2F)CCN(C)CC1 (single isomer, unassigned) [172a]	65%	18%	54%				
CN1CCc2c(c3cc(Cl)ccc3n2CC(O)(c2ccc(F)cc2)C2CC2)C1 (centres unmarked) [compound 223]				47%	69%	21%	
OC(Cn1c2c(c3cc(Cl)ccc31)CNCC2)c1ccncc1 (single isomer, unassigned) [10a, 2-(8-chloro-1,2,3,4-tetrahydro-pyrido[4,3-b]indol-5-yl)-1-pyridin-4-yl-ethanol]							Percentage inhibition of ligand binding, Adrenergic α2B ([1]; [3H]Rauwolscine): 34%; inhibition at 0.1 µM [2, 4]: 8%; inhibition at 0.1 µM [3, 5]: 30%
Cc1ccc2c(c1)c1c(n2CC(OC(=O)N(C)C)c2ccncc2)CCN(C)C1 (single isomer, unassigned) [141b, N,N-dimethyl-carbamic acid 2-(2,8-dimethyl-1,2,3,4-tetrahydro-pyrido[4,3-b]indol-5-yl)-1-pyridin-4-yl-ethyl ester]	86%			79%	19%	28%	Ki ([1]; read-out: Ki α2B): 3.44 nM
